In US7943309B2, “HLA alleles associated with adverse drug reactions and methods for detecting such” (Pharmigene Inc., priority 2006, dated 2011):
Values joined by “and” are separate entries in the source; they are usually repeats but may differ in a detail not shown here. Identical values can stand only once. Values belong to the compound of their own block, whether it stands above or below them.

How the values were obtained:
[1] = test system: CBZ-reactive T cells; assay: Cross-reactivity of CBZ-reactive T cells (interferon-γ ELISPOT); assay type: cell-based, human; conditions: T cells of HLA-B*1502 patients with CBZ-induced SJS/TEN, autologous B cells, 24 hours
From the text: Two patients having CBZ-induced SJS/TEN were recruited from Chang Gung Memorial Hospital. […] Genomic DNAs were extracted from the patients using […] DNA purification system (Gentra systems, Minnesota, USA). The HLA-B alleles were verified using sequence-specific oligonucleotide reverse line blots (DYNAL Biotech Ltd., Bromborough, U.K.).
Peripheral blood mononuclear cells (PBMCs) were isolated from the patients by Ficoll-Isopaque (Pharmacia Fine Chemicals, Piscataway, N.J.) density gradient centrifugation. A portion of the PBMCs were transformed by Epstein-Bar virus to establish autologous B-cell lines.
T cells reactive to CBZ were expanded as described below. PBMCs prepared from the patients were cultured in complete RPMI medium containing 10% heat-inactivated human serum, IL-2 (25 U/ml), and CBZ (25 μg/ml)(Sigma) in a 37° C., 5% CO2 incubator for 7 days. The T cells were then expanded by co-culturing with irradiated (50Gy) autologous B cells in the presence of CBZ for 10 days. After 2 cycles of the above co-culturing procedure, the CBZ-activated T cells were collected and subjected to ELISPOT assays (eBioscience).
The CBZ-reactive T cells were tested for their cross-reactivity to compounds e.g., CBZ 10, 11-epoxide, Oxcarbazepine (brand name: trileptal), Licarbazepine, and sunlindac. Briefly, T lymphocytes (5×10^3 cells) were mixed with autologous B cells (5×10^4 cells) in 200 μl RPMI medium containing 10% FBS in the presence or absence of a test compound. The cells were then incubated for 24 hours in the wells of an ELISPOT plate coated with anti-interferon γ antibodies (Millipore). After incubation, the supernatant of the cell culture was collected and interferon-γ contained therein was detected using antibody-mediated methods known in the art.

[2] = test system: HLA-B*1502; assay: Association of HLA-B*1502 with drug-induced SJS/TEN (HLA genotyping, case-control); parameters: species or system human; conditions: for number of HLA-B*1502-positive SJS/TEN patients who received the drug: among 17 carriers of 53 SJS/TEN patients who received other drugs
Procedure: 73 tegretol-tolerant patients were included as controls. […] All of these patients were subjected to genotyping. […] SSO (DYNAL Biotech Ltd.; Bromborough, UK). […] Marcel G. J. […] To some patients, SNP genotyping was performed using high throughput MALDI-TOF mass spectrometry. Briefly, primers and probes were designed using the Spectro[…] software (Sequenom, San Diego, Calif., USA). Multiplex polymerase chain reactions (PCR) were performed, the unincorporated dNTPs were dephosphorylated using the shrimp alkaline phosphatase (Hoffman-LaRoche, Basel, Switzerland), followed by primer extension. The purified primer extension reaction was spotted onto a 384-element silicon chip (SpectroCHIP, Sequenom), analyzed using a Bruker Biflex III MALDI-TOF SpectroREADER mass spectrometer (Sequenom) and spectra processed with […] (Sequenom).

[3] = test system: HLA-Cw*0801; assay: Marker of B*1502 ancestral haplotype and ADRs: HLA-Cw*0801
From the text: (§1) All of these patients were subjected to genotyping. Briefly, reagents for performing a reverse line blot assay using sequence-specific oligonucleotide (SSO) were purchased from DYNAL Biotech Ltd. (Bromborough, UK). PCR products were generated using biotinylated primers for the second and the third exons of the HLA class I or class II loci, and then hybridized to a line blot of SSO of probes immobilized on a nylon membrane. The presence of biotinylated PCR product bound to a specific probe is detected using streptavidin-horseradish peroxidase (HRP) and a chromogenic, soluble substrate to produce a blue “line” at the position of the positive probe. The probe reactivity pattern was interpreted by the genotyping software Dynal RELI™ SSO (DYNAL Biotech Ltd.; Bromborough, UK). Potential ambiguities were further resolved by sequence-based typing and DNA sequencing performed according to the IHWG Technical Manual (International Histocompatibility Working Group), see Genomic Analysis of the Human MHC DNABased Typing for HLA Alleles and Linked Polymorphisms. Marcel G. J. Tilanus, Editor in Chief, ISBN No. 0-945278-02-0.

[4] = test system: HLA-Cw*0806; assay: Marker of B*1502 ancestral haplotype and ADRs: HLA-Cw*0806
From the text: as §1

[5] = Clinical phenotype of drug-induced cutaneous ADR in individual patients; assay type: in vivo, human
Procedure: A total of 238 ADR patients (Mongoloids or Mongoloid descendents) were recruited either from Chang Gung Memorial Hospital or from several other medical centers throughout Taiwan for this study. Their drug-taking history including dosage and duration, and the phenotypes of ADRs were recorded. The diagnostic criteria of clinical morphology were defined according to Roujeau, J. Invest Dermatol., 102(6):28S-30S, 1994. […] SJS, overlap SJS-TEN and TEN are collectively referred to as SJS/TEN.

[6] = Onset of allopurinol-induced ADR symptoms; assay type: in vivo, human
[7] = test system: Cw*0302; conditions: number (%)
[8] = test system: A*3303; conditions: number (%)
[9] = test system: DRB1*0301; conditions: number (%)
[10] = test system: HLA-B*5801; assay: Association of HLA-B*5801 with allopurinol-induced severe ADRs (HSS, SJS, TEN); conditions: for B*5801 frequency, Allopurinol-tolerant: n = 98
[11] = test system: HLA-B*4601; assay: Association of HLA-B*4601 with CBZ-induced milder cutaneous ADRs (HLA genotyping); parameters: species or system human
From the text: 73 tegretol-tolerant patients were included as controls. Volunteers from the general population of Taiwanese (n=94; age range: 20 to 80 years) were also recruited.
All of these patients were subjected to genotyping.
In contrast, the allele was only found in 26% (19/73) of the CBZ-tolerant group.

[12] = test system: HLA-A*1101
From the text: as §1

[13] = test system: HLA-DRB1*1202
From the text: as §1

[14] = relative to the allopurinol-tolerant group

Compound: NC(=O)N1c2ccccc2C2OC2c2ccccc21 (stereo not drawn) [CBZ 10, 11-epoxide]
- cross-reactivity of CBZ-reactive T cells to the compound [1]: cross-reactive

- number of HLA-B*1502-positive SJS/TEN patients who received the drug [2]: 2
- HLA-B*1502 frequency, Allopurinol SJS/TEN ([2]; n = 17, carriers, number (%)): 1 (5.8%)
- HLA-Cw*0801 frequency, Allopurinol SJS/TEN ([3]; n = 17, number (%)): 2 (11.7%)
- HLA-Cw*0806 frequency, Allopurinol SJS/TEN ([4]; n = 17, number (%)): 0 (0%)
- Phenotype ([5]; individual patient, cutaneous ADR to the suspected drug, listed as Allopurinol): SJS
- Phenotype ([5]; individual patient, cutaneous ADR to the suspected drug, listed as alloprinol): SJS
- second attack after re-exposure to allopurinol ([6]; 2 patients): ≤ 2 days
- onset of HSS symptoms after start of allopurinol exposure ([6]; all of the 31 patients): ≤ 2 months
- Cw*0302 frequency, Allopurinol-ADRs ([7]; n = 31): 29 (93.5%)
- A*3303 frequency, Allopurinol-ADRs ([8]; n = 31): 20 (64.5%)
- DRB1*0301 frequency, Allopurinol-ADRs ([9]; n = 31): 21 (67.7%)
- sensitivity of HLA-B*5801 for allopurinol-induced severe ADRs [10]: 100%
- specificity of HLA-B*5801 for allopurinol-induced severe ADRs [10]: 84%
- Odds ratio (Allopurinol-ADRs/Normal), B*5801 ([10]; 31 ADR patients vs 93 normal subjects): 241
- B*5801 frequency, Allopurinol-ADRs (severe ADRs) ([10]; n = 31, carriers, number (%)): 31 (100%)
Compound: Oc1ncnc2[nH]ncc12 [allopurinol, Allopurinol]
- Phenotype ([5]; individual patient, cutaneous ADR to the suspected drug): SJS (11×) and SJS and vasculitis on leg and SJS, and lichenoid and TEN
- Cw*0302 frequency, Allopurinol-tolerant ([7]; n = 98): 15 (15.3%)
- A*3303 frequency, Allopurinol-tolerant ([8]; n = 98): 18 (18.4%)
- DRB1*0301 frequency, Allopurinol-tolerant ([9]; n = 98): 14 (14.3%)
- Odds ratio (Allopurinol-ADRs/Tolerant), B*5801 ([10]; 31 ADR patients vs 98 tolerant patients): 315
- B*5801 frequency, Allopurinol-tolerant ([10]; carriers, number (%)): 16 (16.3%)
- B*5801 frequency, Allopurinol-tolerant ([10]; carriers, number (%), listed as Allopurinol): 16 (16.3%)^1
- negative predictive value, absence of HLA-B*5801, allopurinol-induced ADRs [10, 14]: 100%
- positive predictive value, presence of HLA-B*5801, allopurinol-induced ADRs [10, 14]: 66%

- number of HLA-B*1502-positive SJS/TEN patients who received the drug [2]: 2
Compound: CC1(C)S[C@@H]2[C@H](NC(=O)[C@H](N)c3ccc(O)cc3)C(=O)N2[C@H]1C(=O)O [amoxicillin]

Compound: NC(=O)N1c2ccccc2CC(=O)c2ccccc21 [Oxcarbazepine, 5H-Dibenz[b,f]azepine-5-carboxamide, 10,11-dihydro-10-oxo]
- cross-reactivity of CBZ-reactive T cells to the compound [1]: cross-reactive

Compound: (S)-(−)-10-acetoxy-10,11- dihydro-5H-dibenzo/b,f/ azepine-5-carboxamide [Licarbazepine]
- cross-reactivity of CBZ-reactive T cells to the compound [1]: cross-reactive

Compound: CC1=C(CC(=O)O)c2cc(F)ccc2/C1=C\c1ccc([S+](C)[O-])cc1 (stereo not drawn) [Sulindac]
- cross-reactivity of CBZ-reactive T cells to the compound [1]: not

Compound: carbamazepine [CBZ]
- HLA-B*1502 frequency, CBZ-tolerant patients ([2]; N = 73, carriers, number (%)): 3 (4.1%)
- HLA-B*1502 frequency, patients with CBZ-induced SJS/TEN ([2]; Taiwanese patients, N = 42, carriers, number (%)): 42 (100%)
- HLA-B*1502 frequency, CBZ Milder ADRs ([2]; n = 16, carriers, number (%)): 0 (0%)
- HLA-B*1502 carriers among SJS/TEN patients who received the drug ([2]; text of Example 3): 100%
- HLA-B*1502 carriers in the drug-tolerant group ([2]; text of Example 3): 4.1%
- negative predictive value of B*1502 for CBZ-induced SJS/TEN ([2]; tolerant group as control): 100%
- positive predictive value of B*1502 for CBZ-induced SJS/TEN ([2]; tolerant group as control): 96.0%
- sensitivity of B*1502 for CBZ-induced SJS/TEN ([2]; tolerant group as control): 100%
- specificity of B*1502 for CBZ-induced SJS/TEN ([2]; tolerant group as control): 95.89%
- Odds Ratio, B*1502, CBZ-induced SJS/TEN ([2]; vs Controls1: patients who had milder ADRs other than SJS, N = 142): 1194.47
- Odds Ratio, B*1502, CBZ-induced SJS/TEN ([2]; vs Controls2: general Taiwanese population, N = 94): 1383.2
- Odds Ratio, B*1502, CBZ-induced SJS/TEN ([2]; vs Controls3: CBZ-tolerant patients, N = 73): 1712
- HLA-B*4601 carriers among patients with milder reactions to CBZ ([11]; 10 out of 16): 62.5%
- HLA-B*4601 carriers in the CBZ-tolerant group ([11]; 19/73): 26%
- odds ratio, B*4601, CBZ-induced milder cutaneous ADRs ([11]; vs CBZ-tolerant group): 4.73
- HLA-Cw*0801 frequency, CBZ SJS/TEN [3]: 38 (90%)
- HLA-Cw*0801 frequency, CBZ Tolerant [3]: 10 (13.7%)
- HLA-Cw*0806 frequency, CBZ SJS/TEN [4]: 3 (7.1%)
- HLA-Cw*0806 frequency, CBZ Tolerant [4]: 0 (0%)
- HLA-A*1101 frequency, CBZ SJS/TEN [12]: 31 (73.8%)
- HLA-DRB1*1202 frequency, CBZ SJS/TEN [13]: 35 (83.3%)
- Phenotype ([5]; human, in vivo): SJS
